Measurements taken from PMC6123788, “Down-regulation of cathepsin S and matrix metalloproteinase-9 via Src, a non-receptor tyrosine kinase, suppresses triple-negative breast cancer growth and metastasis” (Experimental & Molecular Medicine, 2018).
Values belong to the molecule of their own block, whether it stands above or below them.

What was measured:
Assay type in all cases: biochemical
Src [1] = molecular target: T1, Src (Homo sapiens, UniProt P12931); assay: CycLex c-Src kinase assay (IC90)
T1 construct: recombinant catalytic domain of c-Src
T1 sequence (P12931 254-536 limits assumed): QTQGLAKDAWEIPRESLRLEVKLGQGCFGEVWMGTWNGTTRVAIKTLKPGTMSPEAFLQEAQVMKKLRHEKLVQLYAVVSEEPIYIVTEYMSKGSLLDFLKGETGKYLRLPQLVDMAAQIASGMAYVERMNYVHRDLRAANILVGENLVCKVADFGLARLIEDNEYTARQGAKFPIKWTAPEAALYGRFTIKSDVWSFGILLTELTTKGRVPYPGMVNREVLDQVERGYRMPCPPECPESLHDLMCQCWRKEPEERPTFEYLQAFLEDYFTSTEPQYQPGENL

Src [2] = molecular target: T1, Src; assay: CycLex c-Src kinase assay (IC90); supported by DARTS in MDA-MB-231 lysate
CTSS [3] = molecular target: T2, CTSS (Homo sapiens, UniProt P25774); assay: fluorometric CTSS screening kit (BioVision K149), AFC substrate
T2 sequence (P25774 115-331): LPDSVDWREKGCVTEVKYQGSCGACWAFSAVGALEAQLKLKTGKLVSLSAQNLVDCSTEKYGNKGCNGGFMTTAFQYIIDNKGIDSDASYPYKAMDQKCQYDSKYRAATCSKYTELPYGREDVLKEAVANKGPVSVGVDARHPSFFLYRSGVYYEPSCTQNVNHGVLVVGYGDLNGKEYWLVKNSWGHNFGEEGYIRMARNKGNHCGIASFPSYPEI

CTSS [4] = molecular target: T2, CTSS; assay: as above; remark: listed apart in the source
CTSS [5] = molecular target: T2, CTSS; assay: fluorometric CTSS screening kit (BioVision K149), positive control

IC90 (Src [1]): 27.3 µM
Compound: COc1ccc(Cl)c(Nc2ncnc3cc(OCC4CCN(C)CC4)c(OC)cc23)c1 [AZM-475271]

IC90 (Src [2]): 3.2 µM | IC50 (CTSS [3]): 5.1 µM
Compound: Cc1nc2c(c(C)c1O)CC(=O)N2 [BJ-2302]

Compound: Cc1nc2[nH]c(=O)[nH]c2c(C)c1O [BJ-2304]
fluorometric CTSS screening kit (BioVision K149), AFC substrate (CTSS [4]): BJ-2302 exhibited the strongest suppression of CTSS activity (Fig. 3b), followed by BJ-2304

IC50 (CTSS [5]): 0.00019 µM
Compound: CC(C)C[C@H](NC(=O)[C@H](Cc1ccccc1)NC(=O)OCc1ccccc1)C(=O)C=O [Z-FL-COCHO]
